Test results: ChEMBL document CHEMBL4342415, “Inhibition of the Cytolytic Protein Perforin Prevents Rejection of Transplanted Bone Marrow Stem Cells in Vivo” (J Med Chem, 2020)
Active and inactive are the calls of the source. No cut-off for these calls is given here.

Tests used:
[1] = Solubility in water by HPLC analysis; type: physicochemical
[2] = Stability in CD1 mouse liver microsomes assessed as parent compound remaining level at 3 uM pre-incubated for 30 mins before NADPH addition by LC-MS/MS analysis; type: ADME, Microsome; details: read-out: Stability
[3] = Stability in Sprague-Dawley rat liver microsomes assessed as parent compound remaining level at 3 uM pre-incubated for 30 mins before NADPH addition by LC-MS/MS analysis; type: ADME, Microsome; details: read-out: Stability
[4] = Stability in human liver microsomes assessed as parent compound remaining level at 3 uM pre-incubated for 30 mins before NADPH addition by LC-MS/MS analysis; type: ADME, Microsome; details: read-out: Stability
[5] = Stability Milli-Q water at 10 uM incubated for 24 hrs by LC-MS/MS analysis; type: physicochemical; details: read-out: Stability
[6] = Toxicity in human KHYG-1 cells assessed as cell viability at 10 uM after 24 h by trypan blue exclusion assay relative to control; type: cell-based; details: read-out: Activity
[7] = Protein binding in CD1 mouse plasma at 10 uM incubated for 6 hrs by LC-MS/MS analysis and equilibrium dialysis; type: ADME, cell-free; details: read-out: PPB (converted)
[8] = Half life in CD1 mouse at 75 mg/kg, ip measured during 15 mins to 24 hrs by LC-MS/MS analysis; type: ADME, organism-based; details: in vivo
[9] = Cmax in CD1 mouse at 75 mg/kg, ip measured during 15 mins to 24 hrs by LC-MS/MS analysis; type: ADME, organism-based; design: dose 75 mg/kg, route intraperitoneal; details: in vivo
[10] = AUC (0 to infinity) in CD1 mouse at 75 mg/kg, ip measured during 15 mins to 24 hrs by LC-MS/MS analysis; type: ADME, organism-based; design: dose 75 mg/kg, route intraperitoneal, time infinity; details: in vivo
[11] = target: T1, Perforin-1 (Homo sapiens) (UniProt P14222); assay: Inhibition of perforin in human KHYG-1 cells pre-treated with compound for 20 mins assessed as reduction in KHYG-1 cells-mediated cell lysis of human K562 cells at 20 uM measured after 4 hrs by 51Cr release based gamma counting method
T1 sequence (whole entry): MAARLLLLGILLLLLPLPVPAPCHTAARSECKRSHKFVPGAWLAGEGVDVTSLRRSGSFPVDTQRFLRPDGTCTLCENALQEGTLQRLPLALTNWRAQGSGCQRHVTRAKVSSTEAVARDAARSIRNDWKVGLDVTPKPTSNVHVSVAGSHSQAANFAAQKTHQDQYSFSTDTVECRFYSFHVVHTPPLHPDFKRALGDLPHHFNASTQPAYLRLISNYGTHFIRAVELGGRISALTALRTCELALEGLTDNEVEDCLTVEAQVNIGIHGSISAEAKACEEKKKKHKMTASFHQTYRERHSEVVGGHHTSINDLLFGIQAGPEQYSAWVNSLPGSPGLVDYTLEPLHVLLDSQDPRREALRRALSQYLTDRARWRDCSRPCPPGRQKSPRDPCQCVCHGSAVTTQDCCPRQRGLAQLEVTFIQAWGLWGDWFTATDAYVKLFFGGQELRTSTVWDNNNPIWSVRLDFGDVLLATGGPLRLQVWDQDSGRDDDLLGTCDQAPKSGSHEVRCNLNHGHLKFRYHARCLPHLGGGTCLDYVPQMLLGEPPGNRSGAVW

[12] = Half life in CD1 mouse at 90 mg/kg, ip measured during 15 mins to 24 hrs by LC-MS/MS analysis; type: ADME, organism-based; details: in vivo
[13] = Cmax in CD1 mouse at 90 mg/kg, ip measured during 15 mins to 24 hrs by LC-MS/MS analysis; type: ADME, organism-based; design: dose 90 mg/kg, route intraperitoneal; details: in vivo
[14] = AUC (0 to infinity) in CD1 mouse at 90 mg/kg, ip measured during 15 mins to 24 hrs by LC-MS/MS analysis; type: ADME, organism-based; design: dose 90 mg/kg, route intraperitoneal, time infinity; details: in vivo
[15] = Unbound fraction in human KHYG-1 cell media; type: ADME
[16] = Half life in CD1 mouse at 150 mg/kg, ip measured during 15 mins to 24 hrs by LC-MS/MS analysis; type: ADME, organism-based; details: in vivo
[17] = Cmax in CD1 mouse at 150 mg/kg, ip measured during 15 mins to 24 hrs by LC-MS/MS analysis; type: ADME, organism-based; design: dose 150 mg/kg, route intraperitoneal; details: in vivo
[18] = AUC (0 to infinity) in CD1 mouse at 150 mg/kg, ip measured during 15 mins to 24 hrs by LC-MS/MS analysis; type: ADME, organism-based; design: dose 150 mg/kg, time infinity, route intraperitoneal; details: in vivo
[19] = Time at which unbound plasma concentration stays above IC50 in C57BL/6 mouse at 90 mg/kg, ip; type: ADME, organism-based; details: in vivo
Mus musculus [20] = assay: Suppression of bone marrow transplant rejection in B6 mouse model of bone marrow transplantation receiving both allogeneic MHC- mismatched BALB/c stem cells and syngeneic MHC-matched B6 stem cells assessed as reduction in perforin-dependent NK cell-mediated graft rejection in peripheral blood at 125 mg/kg, ip dosed immediately prior to cell transfer and 18 hrs after cell transfer and measured after 24 hrs relative to control; type: functional; design: scale not given: the % may be the effect or the level left
[21] = Toxicity in B6 mouse model of bone marrow transplantation receiving both allogeneic MHC- mismatched BALB/c stem cells and syngeneic MHC-matched B6 stem cells assessed as drug tolerability at 125 mg/kg, ip dosed immediately prior to cell transfer and 18 hrs after cell transfer and measured after 24 hrs relative to control; type: organism-based; details: in vivo
Mus musculus [22] = assay: Suppression of bone marrow transplant rejection in B6 mouse model of bone marrow transplantation receiving both allogeneic MHC- mismatched BALB/c stem cells and syngeneic MHC-matched B6 stem cells assessed as reduction in perforin-dependent NK cell-mediated graft rejection in spleen at 125 mg/kg, ip dosed immediately prior to cell transfer and 18 hrs after cell transfer and measured after 24 hrs relative to control; type: functional; design: scale not given: the % may be the effect or the level left

Structure (SMILES): CN1Cc2cc(-c3ccc(-c4cncc([N-]S(=O)(=O)c5ccc(F)cc5F)c4)s3)cnc2C1=O.[Na+]
- solubility [1]: 20300 µg/mL
- remaining at 3 µM [2]: 100%
- remaining at 3 µM [3]: 100%
- remaining at 3 µM [4]: 80%
- remaining at 24 h, 10 µM [5]: 100%

Structure (SMILES): COc1ncc(-c2ccc(-c3cnc4c(c3)CN(C)C4=O)s2)cc1NS(=O)(=O)c1ccccc1[N+](=O)[O-]
- viability at 24 h, 10 µM [6]: 95.8%
- fraction unbound at 6 h, 10 µM [7]: 0.0009
- half-life [8]: 1.6 h
- Cmax [9]: 637 µM
- AUC(0-inf) [10]: 2240 µM·h

Structure (SMILES): O=C1NCc2ncc(-c3ccc(-c4cncc(NS(=O)(=O)c5ccc(F)cc5F)c4)s3)cc21 [listing 1 of 2 here]
- inhibition [11]: 40%

Structure (SMILES): COc1ncc(-c2ccc(-c3cnc4c(c3)CN(C)C4=O)s2)cc1NS(=O)(=O)c1ccccc1C(F)(F)F
- viability at 24 h, 10 µM [6]: 95.8%

Structure (SMILES): O=C1c2ccc(-c3ccc(-c4cncc(NS(=O)(=O)c5ccc(F)cc5F)c4)s3)cc2CN1CCN1CCCCC1
- inhibition [11]: inactive

Structure (SMILES): O=C1NCc2cc(-c3ccc(-c4cncc([N-]S(=O)(=O)c5ccc(F)cc5F)c4)s3)cnc21.[Na+]
- solubility [1]: 1130 µg/mL

Structure (SMILES): O=C1c2ccc(-c3ccc(-c4cncc(NS(=O)(=O)c5ccc(F)cc5F)c4)s3)cc2CN1CCN1CCCC1
- inhibition [11]: inactive

Structure (SMILES): CN1Cc2cc(-c3ccc(-c4cncc(NS(=O)(=O)c5cccc(C(F)(F)F)c5)c4)s3)cnc2C1=O [listing 1 of 2 here]
- inhibition [11]: 40%

Structure (SMILES): COc1ncc(-c2ccc(-c3cnc4c(c3)CN(C)C4=O)s2)cc1[N-]S(=O)(=O)c1ccccc1C(F)(F)F.[Na+]
- solubility [1]: 7340 µg/mL
- remaining at 3 µM [2]: 91%
- remaining at 3 µM [3]: 50%
- remaining at 3 µM [4]: 63%

Structure (SMILES): CN1Cc2cc(-c3ccc(-c4cncc(NS(=O)(=O)c5ccccc5C(F)(F)F)c4)s3)cnc2C1=O
- viability at 24 h, 10 µM [6]: 100%

Structure (SMILES): O=C1NCc2cc(-c3ccc(-c4cncc(NS(=O)(=O)c5ccc(F)cc5F)c4)s3)cnc21
- viability at 24 h, 10 µM [6]: 49%

Structure (SMILES): CN1Cc2cc(-c3ccc(-c4cncc(NS(=O)(=O)c5ccc(F)cc5F)c4)s3)cnc2C1=O
- viability at 24 h, 10 µM [6]: 99.6%
- fraction unbound at 6 h, 10 µM [7]: 0.0006
- half-life [12]: 6.8 h
- Cmax [13]: 860 µM
- AUC(0-inf) [14]: 10400 µM·h
- fraction unbound [15]: 0.456

Structure (SMILES): O=C1NCc2ncc(-c3ccc(-c4cncc([N-]S(=O)(=O)c5ccc(F)cc5F)c4)s3)cc21.[Na+]
- solubility [1]: 3770 µg/mL
- remaining at 3 µM [2]: 83%
- remaining at 3 µM [3]: 100%
- remaining at 3 µM [4]: 95%
- remaining at 24 h, 10 µM [5]: 93%

Structure (SMILES): CN1Cc2cc(-c3ccc(-c4cncc([N-]S(=O)(=O)c5ccccc5C(F)(F)F)c4)s3)cnc2C1=O.[Na+]
- solubility [1]: 4280 µg/mL
- remaining at 3 µM [2]: 86%
- remaining at 3 µM [3]: 36%
- remaining at 3 µM [4]: 56%

Structure (SMILES): O=C1c2ccc(-c3ccc(-c4cncc(NS(=O)(=O)c5ccc(F)cc5F)c4)s3)cc2CN1CCCO
- inhibition [11]: inactive

Structure (SMILES): O=C1NCc2ncc(-c3ccc(-c4cncc(NS(=O)(=O)c5ccc(F)cc5F)c4)s3)cc21 [listing 2 of 2 here]
- viability at 24 h, 10 µM [6]: 100%
- fraction unbound at 6 h, 10 µM [7]: 0.0011
- half-life [16]: 5.5 h
- Cmax [17]: 1320 µM
- AUC(0-inf) [18]: 7670 µM·h

Structure (SMILES): CN1Cc2cc(-c3ccc(-c4cncc(NS(=O)(=O)c5cccc(C(F)(F)F)c5)c4)s3)cnc2C1=O [listing 2 of 2 here]
- viability at 24 h, 10 µM [6]: 97.8%

Structure (SMILES): COc1ncc(-c2ccc(-c3cnc4c(c3)CN(C)C4=O)s2)cc1NS(=O)(=O)c1ccc(F)cc1F
- viability at 24 h, 10 µM [6]: 90.6%
- fraction unbound at 6 h, 10 µM [7]: 0.0009
- half-life [12]: 18.9 h
- Cmax [13]: 1310 µM
- AUC(0-inf) [14]: 42500 µM·h
- fraction unbound [15]: 0.255
- Time [19]: 5 to 6 h
- Activity (Mus musculus [20]): 66%
- Activity [21]: Non-Toxic
- Activity (Mus musculus [22]): 66%

Structure (SMILES): COc1ncc(-c2ccc(-c3cnc4c(c3)CN(C)C4=O)s2)cc1[N-]S(=O)(=O)c1ccc(F)cc1F.[Na+]
- solubility [1]: 18300 µg/mL
- remaining at 3 µM [2]: 100%
- remaining at 3 µM [3]: 100%
- remaining at 3 µM [4]: 75%
- remaining at 24 h, 10 µM [5]: 100%

Structure (SMILES): O=C1c2ccc(-c3ccc(-c4cncc(NS(=O)(=O)c5ccc(F)cc5F)c4)s3)cc2CN1CCN1CCOCC1
- inhibition [11]: inactive

Structure (SMILES): O=C1c2ccc(-c3ccc(-c4cncc(NS(=O)(=O)c5ccc(F)cc5F)c4)s3)cc2CN1CC(O)CO (configuration not stated)
- inhibition [11]: inactive

Structure (SMILES): COc1ncc(-c2ccc(-c3cnc4c(c3)CN(C)C4=O)s2)cc1[N-]S(=O)(=O)c1ccccc1[N+](=O)[O-].[Na+]
- solubility [1]: 4810 µg/mL
- remaining at 3 µM [2]: 95%
- remaining at 3 µM [3]: 80%
- remaining at 3 µM [4]: 94%
- remaining at 24 h, 10 µM [5]: 100%

Structure (SMILES): CN1CCN(CCN2Cc3cc(-c4ccc(-c5cncc(NS(=O)(=O)c6ccc(F)cc6F)c5)s4)ccc3C2=O)CC1
- inhibition [11]: inactive

Structure (SMILES): CN(C)CCN1Cc2cc(-c3ccc(-c4cncc(NS(=O)(=O)c5ccc(F)cc5F)c4)s3)ccc2C1=O
- inhibition [11]: inactive

Structure (SMILES): CN1Cc2cc(-c3ccc(-c4cncc([N-]S(=O)(=O)c5cccc(C(F)(F)F)c5)c4)s3)cnc2C1=O.[Na+]
- solubility [1]: 20300 µg/mL
- remaining at 3 µM [2]: 88%
- remaining at 3 µM [3]: 84%
- remaining at 3 µM [4]: 46%
